US5126057A, “Disinfecting with N,N'-dihaloimidazolidin-4-ones” (Auburn Research Foundation, priority 1991, dated 1992)
Where two headings read alike, the source gives them in different places.

Key:
Assay type in all cases: cell-based
[1] = system: Oscillatoria lutea, Anabaena cylindrica, and Chlorella pyrenoidosa; assay: Algastatic effect on heavy algal growth in aquariums; conditions: for regrowth of algae (in words): after total elapsed time of 19 days, all titratable chlorine disappeared; for Percent Total Potential Positive Chlorine Remaining: algal aquarium; for algastatic / algacidal effect (in words): extended periods, water containing heavy algal growth; for decoloration / bleaching of algae (in words): within 2 days for Cpd 1 (9.9 mg per liter Cl+), Cpd 3 at 4.9 mg per liter
From the text: Two 10 gallon aquariums each containing 35 liters of Bristol's solution (described by R. C. Starr in the article "The Culture Collection of Algae at the University of Texas", J. Phycology, 14, 47 (1978)) at pH 6.8 were inoculated with a mixture of three species of algae; Oscillatoria lutea, Anabaena cylindrica, and Chlorella pyrenoidosa. The 2 aquariums were continually aerated and each illuminated by a 20 watt Gro-lux lamp placed 15 centimeters from the side of the aquarium. The experiment was conducted at ambient temperature which ranged between 21° and 24° C.
After a 34 day growth period the heavy algal cell density was measured by direct counts using a hemacytometer. The cell density in aquarium A at this time was 2.2×10^7 cells per milliliter, while that in aquarium B was 6.6×10^6 cells per milliliter. The absorbances of the two solutions at 750 nanometers were also measured at that time and found to be 0.273 for aquarium A and 0.112 for aquarium B. The absorbance at 750 nanometers has been employed as an index of algal chlorophyll concentration ("Standard methods for the Examination of Water and Wastewater", 16th edition, American Public Health Association, Washington, D.C., 1985, p. 1070). Then a solution of 1.042 grams of 1,3-dichloro-2,2,5,5-tetramethylimidazolidin-4-one (Compound 1) as prepared in example 3 in 500 milliliters of demand-free water (DFW) was added to aquarium A resulting in an initial potential positive chlorine concentration of 9.9 milligrams per liter in that aquarium. Similarly a solution of 0.872 gram of 1-chloro-2,2,5,5-tetramethylimidazolidin-4-one (Compound 3) as prepared in example 6 in 500 milliliters of DFW was added to aquarium B resulting in an initial potential positive chlorine concentration of 4.9 milligrams per liter in that aquarium. The aquariums were sampled periodically and analyzed for algal growth by means of absorbance measurements at 750 nanometers using a Milton Roy Spectronic 301 spectrophotometer and for total potential positive chlorine concentration using standard iodometric titration. […] Following the loss of all total potential positive chlorine from the aquariums, second additions of 0.87 grams of Compound 3 and of 1.042 grams of Compound 1 were made to aquariums B and A, respectively.

[2] = system: Staphylococcus aureus (ATCC 25923); assay: Disinfection of hard surfaces (modified AOAC Use-Dilution Method, stainless steel cylinders); conditions: for bacterial growth after contact (in words): 25, 50, 100, 200 ppm positive chlorine (molar equivalents for Cpd 5), pH 7.0, 10 minutes contact; for minimal effective concentration: Staphylococcus aureus, ATCC25923, 10 min, 10 minutes contact, pH 7.0, read-out: effective hard surface disinfectant concentration
Procedure: The efficacies of compounds 1 and 5 as hard surface disinfectants were assessed by using a modification of the AOAC Use-Dilution Method as described in "Official Methods of Analysis of the Association of Official Analytical Chemists", ed. W. Horwitz, A.O.A.C., Washington, D.C., 1989, pp. 58-59. Small stainless steel cylinders (Penicylinders from Fisher Scientific) were cleaned with 1 Normal sodium hydroxide solution, sterilized in 0.1 percent asparagine in an autoclave, and cooled to ambient temperature. The cylinders were then inoculated with Staphylococcus aureus (ATCC 25923) by placing them in a 24 hour old nutrient broth culture of the organism for 15 minutes. The cylinders were aseptically removed from the broth, placed in a sterile petri dish upon filter paper for draining, and dried at 37° C. in an incubator for 60 minutes.
The halogenated imidazolidin-4-ones were dissolved in demand-free water buffered at pH 7.0 at concentrations of 25, 50, 100, and 200 parts per million of potential ionizable positive chlorine for Compound 1 (or molar equivalents of total potential ionizable positive halogen for Compound 5), and 2 milliliter aliquots of the solutions were added to each of a series of sterile culture tubes. Control solutions of pH 7.0 demand-free water were also added to a series of tubes. At least 10 tubes at each concentration of disinfectant were employed. Then an inoculated metal cylinder was added to each tube containing disinfectant and each control tube at exactly 30 second intervals. After exactly 10 minutes contact time the cylinders were removed from the tubes at 30 second intervals in the same order as was used for their addition, i.e. the contact time was 10 minutes for all cylinders. Each metal cylinder was placed into a culture tube containing 3 milliliters of nutrient broth and 0.01 normal sodium thiosulfate to quench disinfectant action. All tubes were examined for bacterial growth (inspected for the presence or absence of turbidity) following 48 hours of incubation at 37° C.

[3] = system: Pseudomonas aeruginosa (ATCC 27853); assay: Bactericidal efficacy, percent inactivation of P. aeruginosa; conditions: pH 7.0, 22° C., DFW
Procedure: The halogenated imidazolidin-4-one derivatives prepared as in examples 3, 5, and 6 (Compounds 1, 5, and 3, respectively) were tested as bactericides against the microorganisms Staphylococcus aureus (ATCC25923) and Pseudomonas aeruginosa (ATCC 27853) in demand-free water (DFW) as a function of pH and temperature and in a synthetic-demand water (SDW) at pH 9.5 and 4° C. The demand-free and synthetic-demand waters were prepared as described in examples 7 and 12, respectively.
For the bactericidal efficacy tests 50 milliliters of buffered DFW or SDW were placed in a 125 milliliter flask which was then inoculated with the organism to be tested such that the final density of the organism was about 1×10^6 cfu/ml (colony forming units per milliliter). The inoculated solution was allowed to equilibrate at the test temperature by immersion in a thermostated water bath for 15 minutes with constant stirring. Then an appropriate amount of an aqueous solution containing the test halogenated imidazolidin-4-one compound maintained at the same test temperature was added to the inoculated solution to bring the total concentration of potential positive halogen (Cl^+ or Cl^+ /Br^+) in the mixture to a predetermined level (10 parts per million and 5 parts per million Cl^+ from compounds 1 and 3; the molar equivalent in Cl^+ /Br^+ from Compound 5). 1 milliliter aliquots were removed from the test mixture at various predetermined times, and the active halogen was quenched by 1 milliliter portions of sterile 0.02 Normal sodium thiosulfate. Serial dilutions were made into sterile saline, and three 25 microliter aliquots of each of the resulting dilutions were applied to the dried surface of a Petri dish containing tryptic soy and nutrient agars for plating S. aureus and P. aeruginosa, respectively. After 48 hours at 37° C. the three replicates for each dilution were counted and averaged. This average was used to compute the cfu/ml for that particular aliquot. Inactivation of the organism was considered to be at least 99.9999 percent when no colonies were detected in the thiosulfate quenched aliquots.

[4] = day 0, initial 9.9 (Cpd 1) or 4.9 (Cpd 3) mg per liter
[5] = day 6 (then additional 0.87 grams of Cpd 3 added), 8640 min
[6] = day 10 (then additional 1.042 grams of Cpd 1 added), 14400 min
[7] = day 0 (before addition), initial Cl+ 9.9 (Cpd 1) or 4.9 (Cpd 3) mg per liter
[8] = day 1, initial Cl+ 9.9 (Cpd 1) or 4.9 (Cpd 3) mg per liter
[9] = day 3, initial Cl+ 9.9 (Cpd 1) or 4.9 (Cpd 3) mg per liter
[10] = day 8, second addition of Cpd 3 at day 6
[11] = day 10, second addition of Cpd 3 at day 6, of Cpd 1 at day 10
[12] = day 19, after second additions, no titratable chlorine left

Row | SMILES | regrowth of algae (in words) [1] | Percent Total Potential Positive Chlorine Remaining [1, 4] | Percent Total Potential Positive Chlorine Remaining ([1]; day 1) | Percent Total Potential Positive Chlorine Remaining ([1]; day 3) | Percent Total Potential Positive Chlorine Remaining [1, 5] | Percent Total Potential Positive Chlorine Remaining ([1]; day 7) | Percent Total Potential Positive Chlorine Remaining ([1]; day 8) | Percent Total Potential Positive Chlorine Remaining [1, 6] | Percent Total Potential Positive Chlorine Remaining ([1]; day 16) | A750 (Absorbance at 750 Nanometers) [1, 7] | A750 (Absorbance at 750 Nanometers) [1, 8] | A750 (Absorbance at 750 Nanometers) [1, 9] | A750 (Absorbance at 750 Nanometers) [1, 10] | A750 (Absorbance at 750 Nanometers) [1, 11] | A750 (Absorbance at 750 Nanometers) ([1]; day 16, after second additions) | A750 (Absorbance at 750 Nanometers) [1, 12] | algastatic / algacidal effect (in words) [1] | decoloration / bleaching of algae (in words) [1] | bacterial growth after contact (in words) [2] | killing at 5 ppm ([3]; ATCC27853, 5 min, 5 minutes) | other results
1 | CC1(C)C(=O)N(Cl)C(C)(C)N1Cl [Compound 1, 1,3-dichloro-2,2,5,5-tetramethylimidazolidin-4-one] | the algae began to grow again | 100.0% | 82.9% | 44.4% | 13.8% | 7.0% | 3.4% | 0.0% | 34.7% | 0.273 | 0.064 | 0.081 | 0.058 | 0.038 | 0.020 | 0.055 | algastatic, but not algacidal | only white turbidity resulting from the bleaching of the algae | none of the tubes containing compounds 1 or 5 at any of the concentration levels exhibited bacterial growth | > 100% | time to noticeable loss of green coloration ([1]; Cpd 1 at 9.9 mg per liter Cl+): ≤ 4 h; minimal effective concentration ([2]; potential ionizable positive chlorine): ≤ 25 µg/mL; killing at 5 ppm ([3]; ATCC27853, 10 min, 10 minutes): > 100%
2 | CC1(C)NC(=O)C(C)(C)N1Cl [Compound 3, 1-chloro-2,2,5,5-tetramethylimidazolidin-4-one] | the algae began to grow again | 100.0% | 71.8% | 31.0% | 0.0% | 77.3% | 47.6% | 17.3% | 0.0% | 0.112 | 0.063 | 0.066 | 0.021 | 0.012 | 0.007 | 0.010 | algastatic, but not algacidal | a longer time period for decoloration |  |  | 
3 | CC1(C)C(=O)N(Cl)C(C)(C)N1Br [Compound 5, 1-bromo-3-chloro-2,2,5,5-tetramethylimidazolidin-4-one] |  |  |  |  |  |  |  |  |  |  |  |  |  |  |  |  |  |  | none of the tubes containing compounds 1 or 5 at any of the concentration levels exhibited bacterial growth | > 100% | minimal effective concentration ([2]; total potential positive halogen): ≤ 40.7 µg/mL; killing at 5 ppm ([3]; ATCC27853, 10 min, 10 minutes): > 100%
